Laboratory results: patent US12479866B2, “Boron-containing rho kinase inhibitors” (Percipiad, Inc., priority 2019, dated 2025)
pIC50: −log10 of the molar value. Several values for one entry are separate records, joined by “and”; a condition that tells them apart may be missing. Equal entries are not always repeated. Where two headings read alike, the source gives them in different places.

How the values were obtained:
[1] = target: ROCK2 (Homo sapiens (Human), UniProt O75116); test: ROCK2 ADP-Glo kinase enzyme inhibition assay; format: biochemical
Method: (§1) We measured ROCK and PKA kinase enzyme activity inhibition by compounds using commercially available ROCK1 (Promega Corporation, cat #V9581), ROCK2 (Promega, cat #V4045), and PKA kinase (Promega, cat #V4247) ADP-Glo™ assay kits. ADP-Glo™ Kinase Assay is a luminescent ADP detection assay that provides a homogeneous method to measure kinase activity by quantifying the amount of ADP produced during a kinase reaction. The assay is performed in two steps. First, after the kinase reaction, an equal volume of ADP-Glo™ Reagent is added to terminate the kinase reaction and deplete the remaining ATP. Second, the Kinase Detection Reagent is added to simultaneously convert ADP to ATP and allow the newly synthesized ATP to be measured using a luciferase/luciferin reaction. The light generated is measured using a luminometer. A complete protocol is included with the kits and is also available at the Promega website. The assay is briefly described below. • 1. Diluted enzyme, substrate, ATP, and compounds (inhibitors) in Kinase Buffer (40 mM Tris, 7.5, 20 mM MgCl2, 0.1 mg/ml BSA, 50 μM DTT). • 2. Added 1 μl of inhibitor, 2 μl of enzyme and 2 μl of substrate/ATP mix to the wells of 384-well low volume nonbinding assay plate A series of three-fold dilution of inhibitor was prepared and assayed for each inhibitor. • 3. Incubated at room temperature for 60 minutes. • 4. Added 5 μl of ADP-Glo™ Reagent. • 5. Incubated at room temperature for 60 minutes. • 6. Added 10 μl of Kinase Detection Reagent • 7. Incubated at room temperature for 30 minutes.
(§2) Recorded luminescence (Integration time 1 second) using a plate-based luminometer.
(§3) Calculated Percent Enzyme Activity: First subtract the signal of the negative control (no enzyme and no inhibitor) from each sample's signal. Then use the mean relative light units (RLU) values for the 0% kinase activity (neither inhibitor nor enzyme) and the 100% kinase activity (no compound) to calculate the other percent enzyme activities remaining in the presence of the different dilutions of inhibitor.
Inhibitor stock solutions of 10 mM are made in DMSO and stored at −20° C. Dilutions were made in assay buffer immediately before use.

[2] = target: ROCK1 (Homo sapiens (Human), UniProt Q13464); test: ROCK1 ADP-Glo kinase enzyme inhibition assay; format: biochemical
Method: as §1, §2
as §3, with “inhibitor. […]” for “inhibitor.”

[3] = target: PKA (Homo sapiens (Human), UniProt P17612); test: PKA ADP-Glo kinase enzyme inhibition assay; format: biochemical; conditions: read-out: PKAIC50
Method: as §1, with “Added 1 μl of inhibitor, 2 μl of enzyme and 2 μl of substrate/ATP mix to the wells of 384-well low volume nonbinding assay plate A series of three-fold dilution of inhibitor was prepared and assayed for each inhibitor. • 3. Incubated at room temperature for 60 minutes. • 4. Added 5 μl of ADP-Glo™ Reagent. • 5. Incubated at room temperature for 60 minutes. • 6. Added 10 μl of Kinase Detection Reagent • 7. Incubated at room temperature for 30 minutes.” left out
as §2
Calculated Percent Enzyme Activity: First subtract the signal of the negative control (no enzyme and no inhibitor) from each sample's signal. […]

[4] = Caco-2 Permeability; format: in vitro ADME; conditions: human
Method: (§4) Caco-2 Permeability. Experiment was conducted by Absorption Systems. Caco-2 cells (clone C2BBe1) were obtained from American Type Culture Collection (Manassas, VA). Cell monolayers were grown to confluence on collagen-coated, microporous membranes in 12-well assay plates. The permeability assay buffer was Hanks' balanced salt solution containing 10 mM HEPES and 15 mM glucose at a pH of 7.4. The buffer in the receiver chamber also contained 1% bovine serum albumin. The dosing solution concentration was 5 μM of test article in the assay buffer. Cell monolayers were dosed on the apical side (A-to-B) or basolateral side (B-to-A) and incubated at 37° C. with 5% CO2 in a humidified incubator. Samples were taken from the donor and receiver chambers at 120 minutes. Each determination was performed in duplicate. The flux of lucifer yellow was also measured post-experimentally for each monolayer to ensure no damage was inflicted to the cell monolayers during the flux period. […] Permeability calculations were performed as per Absorption Systems protocol, Table 23.

[5] = system: Caco-2 cells; test: Caco-2 Permeability; format: in vitro ADME; conditions: Caco-2
Method: as §4

[6] = system: MDR1-MDCK cell monolayers; test: MDR1-MDCK Permeability; format: in vitro ADME; conditions: MDR1-MDCK
Method: as §4, with “MDR1-MDCK” for “Caco-2”, “MDR1-MDCK cell” for “Caco-2 cells (clone C2BBe1) were obtained from American Type Culture Collection (Manassas, VA). Cell”, “post experimentally” for “post-experimentally”, “24.” for “23.”

[7] = system: MDR1; test: MDR1-MDCK Permeability; format: in vitro ADME; conditions: dog
Method: as §4, with “MDR1-MDCK” for “Caco-2”, “MDR1-MDCK cell” for “Caco-2 cells (clone C2BBe1) were obtained from American Type Culture Collection (Manassas, VA). Cell”, “post experimentally” for “post-experimentally”, “24.” for “23.”

[8] = system: Phospho-MYPT1 Thr853; test: Inhibition of MYPT1 phosphorylation in human trabecular meshwork (hTM) cells, western blot
Method: The outflow of aqueous humor across the trabecular meshwork (TM) is regulated by, among other factors, actomyosin contraction of the TM cells and altered extracellular matrix. ROCK is known to inhibit the phosphatase activity of myosin light chain phosphatase (MLCP) by phosphorylating MYPT1 at amino acids Thr696 and Thr853. […] Media with inhibitors was suctioned off, wells washed 2 times with cold PBS pH 7.4 buffer, and attached cells were scrapped off with 500 μl (T75 flasks) or 100 μl (6-well plates) SDS-PAGE sample buffer, and collected into 1.5 ml microcentrifuge tubes. • 5.
Two days before compound addition 6-well plates were seeded at a density of 75,000 cells/well. On the day of compound addition media was replaced with 3 ml fresh media containing compounds at different concentration. Fifteen hours after compound addition cells in each well were lysed with 0.2 ml extraction buffer (SDS-PAGE sample buffer containing […] and protease inhibitors) and extracts were collected.
Compounds (10 μM) were added to hTM cells cultured in 60 mm plates and cell extracts collected after […]. Cells were lysed with 0.2 ml lysis buffer and 20 μl extract was loaded in each lane (FIG. 7).

[9] = system: primary hTM cells; test: RealTime-Glo MT cell viability assay in hTM cells; format: cell-based; conditions: for Cell viability compared to DMSO controls: 30 uM and 10 μm; for Cell viability: 3.33 μm
From the text: (§5) Commercially available RealTime-Glo™ MT cell viability (Promega, catalog #G9712) and CellTox™ Green cytotoxicity (Promega, catalog #G8731) assays were used in assessing effect of compounds on primary hTM cell viability and cytotoxicity. The RealTime-Glo™ MT cell viability assay is a nonlytic, homogeneous, bioluminescent method that determines the number of viable cells in culture by measuring the reducing potential of cells and thus metabolism (MT). Viable cells reduce the proprietary pro-substrate to generate a substrate for NanoLuc® luciferase. This substrate diffuses from cells into the surrounding culture medium, where it is rapidly used by the NanoLuc® Enzyme to produce a luminescent signal. In a contrasting and complementary manner, CellTox™ Green cytotoxicity assay measures changes in membrane integrity that occur as a result of cell death. This assay system uses a proprietary asymmetric cyanine dye that is excluded from viable cells but preferentially stains the dead cells' DNA. The fluorescent signal produced by the dye binding to the dead-cell DNA is proportional to cytotoxicity.
Human™ cells were cultured and maintained as described in Example 12. Fifty μl cells (600 cells) in culture media containing compound, 25 μl media with RealTime-Glo™ MT cell viability assay reagent and 25 μl media with CellTox™ Green cytotoxicity assay reagent were plated in black, clear bottom 96-well plates. Light emitted by luciferase and fluorescence emitted by dye binding to DNA (excitation 485 nm and emission 525 nm) were measured at 24 h, 48 h, and 72 h after incubation using plate based luminescence and fluorescence plate readers.

[10] = system: primary hTM cells; test: CellTox Green cytotoxicity assay in hTM cells; format: cell-based; conditions: 24 h, 48 h, 72 h
From the text: as §5, with “The fluorescent signal produced by the dye binding to the dead-cell DNA is proportional to cytotoxicity.” left out
Human™ cells were cultured and maintained as described in Example 12. […] Light emitted by luciferase and fluorescence emitted by dye binding to DNA (excitation 485 nm and emission 525 nm) were measured at 24 h, 48 h, and 72 h after incubation using plate based luminescence and fluorescence plate readers.

[11] = system: New Zealand White rabbits; conditions: 0.1 ml of 5 mg/ml
From the text: The right eye that was not treated served as the control. […] The eyes of initial and confirmatory test animals were examined with slit lamp for ocular lesions. […] The animals were also observed for clinical signs of toxicity, morbidity and mortality.

[12] = Solubility in saline; format: physicochemical
[13] = system: hTM cells; test: hTM cell morphology changes (microscopy); conditions: for hTM cell morphology: 20 hours
[14] = system: HEK293 cells; test: CellTiter-Glo Luminescent Cell Viability Assay; conditions: HEK293 cells, two days
Method: We used CellTiter-Glo® Luminescent Cell Viability Assay (Promega, cat #G7573) to determine the number of viable cells in culture based on quantitation of the ATP present, which signals the presence of metabolically active cells. • 1. Prepared HEK293 suspension culture cells (ThermoFisher, cat #A14635) and added 50 μl cells in media (12,500 cells) to each well of a white, opaque-walled 96-well plate in triplicate. • 2. […] Incubated at 37° C. and 5% CO2 for two days. • 4. Added 100 μl of CellTiter-Glo® Reagent to each well and mix contents for 2 minutes on an orbital shaker to induce cell lysis. • 5. Recorded luminescence using a plate luminometer.

ROCK2, sequence (O75116 whole entry): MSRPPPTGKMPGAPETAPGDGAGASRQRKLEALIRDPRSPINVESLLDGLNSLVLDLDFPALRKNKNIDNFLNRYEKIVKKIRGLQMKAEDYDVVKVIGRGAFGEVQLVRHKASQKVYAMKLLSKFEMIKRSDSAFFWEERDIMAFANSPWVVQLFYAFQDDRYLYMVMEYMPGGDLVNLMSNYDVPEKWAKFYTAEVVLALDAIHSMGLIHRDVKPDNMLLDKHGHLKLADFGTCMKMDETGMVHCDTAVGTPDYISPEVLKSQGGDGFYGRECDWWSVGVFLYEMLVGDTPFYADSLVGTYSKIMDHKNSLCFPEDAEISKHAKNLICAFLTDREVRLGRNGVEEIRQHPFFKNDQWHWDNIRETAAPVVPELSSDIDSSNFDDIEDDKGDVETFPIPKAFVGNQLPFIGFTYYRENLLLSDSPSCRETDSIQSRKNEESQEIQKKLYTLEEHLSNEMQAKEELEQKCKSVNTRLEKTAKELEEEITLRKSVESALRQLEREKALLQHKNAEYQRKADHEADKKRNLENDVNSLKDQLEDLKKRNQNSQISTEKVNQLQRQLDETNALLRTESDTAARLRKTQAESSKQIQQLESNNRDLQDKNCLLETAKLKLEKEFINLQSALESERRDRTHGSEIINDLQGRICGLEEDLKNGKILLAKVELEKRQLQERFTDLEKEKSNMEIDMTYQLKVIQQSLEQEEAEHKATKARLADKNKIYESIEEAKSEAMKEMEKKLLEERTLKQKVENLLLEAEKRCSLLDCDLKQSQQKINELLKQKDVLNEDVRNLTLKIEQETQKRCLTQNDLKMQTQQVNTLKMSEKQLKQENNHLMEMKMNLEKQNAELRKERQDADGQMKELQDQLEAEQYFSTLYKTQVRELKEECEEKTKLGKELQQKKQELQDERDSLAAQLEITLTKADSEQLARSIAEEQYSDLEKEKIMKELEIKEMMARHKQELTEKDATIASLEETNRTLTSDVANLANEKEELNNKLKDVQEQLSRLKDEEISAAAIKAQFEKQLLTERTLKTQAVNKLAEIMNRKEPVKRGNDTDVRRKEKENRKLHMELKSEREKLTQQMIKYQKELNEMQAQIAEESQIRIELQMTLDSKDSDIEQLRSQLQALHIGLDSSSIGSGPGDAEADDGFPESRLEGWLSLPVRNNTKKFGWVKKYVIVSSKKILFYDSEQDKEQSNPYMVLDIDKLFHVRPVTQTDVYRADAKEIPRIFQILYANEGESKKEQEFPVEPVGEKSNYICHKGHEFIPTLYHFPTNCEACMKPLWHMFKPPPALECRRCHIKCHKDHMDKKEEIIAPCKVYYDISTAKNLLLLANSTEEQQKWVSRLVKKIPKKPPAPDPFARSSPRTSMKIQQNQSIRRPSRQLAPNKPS
ROCK1, sequence (Q13464 whole entry): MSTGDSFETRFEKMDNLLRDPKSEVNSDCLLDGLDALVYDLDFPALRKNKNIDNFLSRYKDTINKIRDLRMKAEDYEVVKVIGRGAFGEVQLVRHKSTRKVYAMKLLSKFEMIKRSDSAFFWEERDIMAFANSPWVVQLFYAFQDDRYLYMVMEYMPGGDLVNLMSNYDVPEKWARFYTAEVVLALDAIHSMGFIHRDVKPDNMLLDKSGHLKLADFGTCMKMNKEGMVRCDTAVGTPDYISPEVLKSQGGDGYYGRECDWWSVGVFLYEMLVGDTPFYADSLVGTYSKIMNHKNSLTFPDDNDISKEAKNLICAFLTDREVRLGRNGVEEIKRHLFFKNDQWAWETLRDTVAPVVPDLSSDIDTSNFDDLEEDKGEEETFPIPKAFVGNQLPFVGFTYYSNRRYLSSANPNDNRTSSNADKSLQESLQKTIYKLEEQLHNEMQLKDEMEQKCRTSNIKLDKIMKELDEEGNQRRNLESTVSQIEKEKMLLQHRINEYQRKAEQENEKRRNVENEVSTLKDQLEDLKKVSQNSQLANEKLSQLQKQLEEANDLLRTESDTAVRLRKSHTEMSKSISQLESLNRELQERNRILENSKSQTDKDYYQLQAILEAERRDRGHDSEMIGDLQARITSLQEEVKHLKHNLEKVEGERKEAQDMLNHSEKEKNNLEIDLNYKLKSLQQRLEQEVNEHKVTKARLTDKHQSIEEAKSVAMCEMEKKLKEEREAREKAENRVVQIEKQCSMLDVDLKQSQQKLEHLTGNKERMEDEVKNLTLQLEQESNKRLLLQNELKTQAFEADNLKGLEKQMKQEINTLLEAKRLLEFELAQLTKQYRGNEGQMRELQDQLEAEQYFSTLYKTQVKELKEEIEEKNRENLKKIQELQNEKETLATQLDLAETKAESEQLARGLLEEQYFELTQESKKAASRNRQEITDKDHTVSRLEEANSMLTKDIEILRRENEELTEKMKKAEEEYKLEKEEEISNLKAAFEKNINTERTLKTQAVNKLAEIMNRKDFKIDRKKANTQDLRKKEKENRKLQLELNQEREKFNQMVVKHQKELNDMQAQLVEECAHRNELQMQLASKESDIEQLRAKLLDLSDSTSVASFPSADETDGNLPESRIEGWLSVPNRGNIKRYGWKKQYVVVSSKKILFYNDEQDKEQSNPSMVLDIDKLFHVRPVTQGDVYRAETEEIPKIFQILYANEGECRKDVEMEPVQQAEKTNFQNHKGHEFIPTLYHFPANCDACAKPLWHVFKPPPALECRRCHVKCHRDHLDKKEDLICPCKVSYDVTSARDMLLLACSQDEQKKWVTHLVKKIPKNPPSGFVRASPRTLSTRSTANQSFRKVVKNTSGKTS

## Cl.Cl.NCC(C(=O)Nc1ccc2cnccc2c1)c1ccc(B(O)O)cc1 (centres unmarked) [Compound 10]
[1]; Exp #1, read-out: ROCK2 IC50(Exp #1)
  pIC50: 7.57
[1]; Exp #2, read-out: ROCK2 IC50(Exp #2)
  pIC50: 7.59
[1]; Exp #3, read-out: ROCK2 IC50(Exp #3)
  pIC50: 7.59 and 7.82
[1]; average of two lots of compound 10 and compound 10.2HCl, read-out: average IC50 estimate against ROCK2
  pIC50: 7.60
[2]; average of two lots of compound 10 and compound 10.2HCl, read-out: average IC50 estimate against ROCK1
  pIC50: 7.08
[2]; read-out: ROCK1 IC50
  pIC50: 6.86 and 7.21
[3]
  pIC50: 7.28
[4]; Caco-2, pH 7.4
  efflux ratio at 120 min, 5 μM: 2.58
[4]; Caco-2, pH 7.4, A to B
  recovery at 120 min, 5 μM: 108%
[4]; Caco-2, pH 7.4, A to B, read-out: Papp Avg
  Papp at 120 min, 5 μM: 0.192 ×10⁻⁶ cm/s
[4]; Caco-2, pH 7.4, A to B, read-out: Papp R1
  Papp at 120 min, 5 μM: 0.209 ×10⁻⁶ cm/s
[4]; Caco-2, pH 7.4, A to B, read-out: Papp R2
  Papp at 120 min, 5 μM: 0.176 ×10⁻⁶ cm/s
[4]; Caco-2, pH 7.4, B to A
  recovery at 120 min, 5 μM: 103%
[4]; Caco-2, pH 7.4, B to A, read-out: Papp Avg
  Papp at 120 min, 5 μM: 0.496 ×10⁻⁶ cm/s
[4]; Caco-2, pH 7.4, B to A, read-out: Papp R1
  Papp at 120 min, 5 μM: 0.565 ×10⁻⁶ cm/s
[4]; Caco-2, pH 7.4, B to A, read-out: Papp R2
  Papp at 120 min, 5 μM: 0.426 ×10⁻⁶ cm/s
[5]
  Absorption Potential Classification: low (Papp(A to B) < 1 × 10^−6 cm/s: low)
  Significant Efflux: No
[6]
  Brain Penetration Classification: low
[7]; MDCK-MDR1, pH 7.4, A to B
  recovery at 120 min, 5 μM: 95.5%
[7]; MDCK-MDR1, pH 7.4, A to B, read-out: Papp Avg
  Papp at 120 min, 5 μM: < 0.0566 ×10⁻⁶ cm/s
[7]; MDCK-MDR1, pH 7.4, A to B, read-out: Papp R1
  Papp at 120 min, 5 μM: < 0.0566 ×10⁻⁶ cm/s
[7]; MDCK-MDR1, pH 7.4, A to B, read-out: Papp R2
  Papp at 120 min, 5 μM: < 0.0566 ×10⁻⁶ cm/s
[7]; MDCK-MDR1, pH 7.4, B to A
  recovery at 120 min, 5 μM: 91.1%
[7]; MDCK-MDR1, pH 7.4, B to A, read-out: Papp Avg
  Papp at 120 min, 5 μM: < 0.0772 ×10⁻⁶ cm/s
[7]; MDCK-MDR1, pH 7.4, B to A, read-out: Papp R2
  Papp at 120 min, 5 μM: < 0.0772 ×10⁻⁶ cm/s

## Cc1ccc(C(=O)OCc2ccc([C@@H](CN)C(=O)Nc3ccc4cnccc4c3)cc2)c(C)c1.Cl.Cl [Netarsudil.2HCl]
[8]; 2.5 μM inhibitors
  Inhibition of MYPT1 Thr853 phosphorylation (western blot): inhibited phosphorylation of MYPT1
[8]; 10 μM inhibitors, 7 hours
  Inhibition of MYPT1 Thr853 phosphorylation (western blot): completely inhibited MYPT1 phosphorylation
[8]; 10 μM, fifteen hours
  Amount of protein in lane (toxicity): much lower amount of protein because of toxicity
[9]; 1.11 μM
  reduction in viability: 10%
[9]; within 24 h
  Cell viability compared to DMSO controls: < 2%
[9]; within 48 h
  Cell viability compared to DMSO controls: < 0.1%
[9]; 24 h
  Cell viability: 53%
[9]; 48 h
  Cell viability: 15%
[9]; 72 h
  Cell viability: 9%
[10]
  Cytotoxicity / membrane integrity (in words): concentration dependent
[11]
  eye irritation classification: irritating
  mean score Iris: 2.0
  mean score conjunctival oedema (chemosis): 4.0
  mean score conjunctival redness: 3.0
  mean score corneal opacity: 3.0
[12]
  solubility in saline: ≤ 5000 µg/mL
[13]; 10 μM
  hTM cell morphology: became small and round
[13]; […] and 3.3 μM
  hTM cell morphology: started contracting and detaching from plate
[13]; hTM cells, 30, 10, 3.33, or 1.11 μM, 24 hours
  cellular morphological changes: affected cell morphology starting at 1.11 μM showing cell contraction and becoming round and small at 10 μM
[14]; 2.5 μM
  reduction in ATP levels: 80%
[14]; 25 μM
  reduction in ATP levels: 96%
